Data as given in patent publication US20050208511A1, “DMBT1 as a clinical marker and uses thereof” (priority 2003, published 2005).

Key:
DMBT1 [1] = test: DNA microarray analysis of DMBT1 expression in endometrium of ovariectomized monkeys; type: in vivo, cynomolgus monkeys (Macaca fascicularis); conditions: for effect on estrogen-induced increase in DMBT1 mRNA levels: OVX monkeys with estrogen implant plus mifepristone 10 mg/kg/d, microarray analysis and PCR
Text: (§1) Adult female cynomolgus monkeys (Macaca fascicularis) were obtained from Covance Research Products. Following one complete menstrual cycle and in the follicular phase of the subsequent menstrual cycle, the animals were ovariectomized by a mid-ventral laparotomy. Ovariectomized (OVX) animals were subject to estrogen treatment after the fourth week following ovariectomy.
Following this period, the OVX monkeys were euthanized and tissue biopsies were taken from endometria of the monkeys treated with estrogen and the placebo. (Details of the endometrial features in OVX monkeys and OVX+estrogen-treated monkeys is described in Example 4.) The biopsies were placed in sterile containers, snap frozen immediately in liquid nitrogen, and stored at −80° C. until processed. Total RNA was prepared from each endometrial tissue biopsy, as described below.
Total RNA was prepared from endometrial tissue biopsies (approximately 50 mg each) using RNAzol™ (Tel-Test, Friendswood, Tex.), as follows. Two milliliters of RNAzol™ were used per 100 mg of tissue. Tissues were homogenized for 2 to 3 minutes using a Tissue Tearor homogenizer (Model No. 985-370; BioSpec Products, Bartlesville, Okla.), then transferred to a glass mortar bowl. The tissues were ground with at least 10 strokes of the pestle until a clear suspension was obtained. The homogenates were transferred to a polypropylene conical flask, to which 0.1 mL of chloroform per 1 mL of homogenate was added. The mixtures were then shaken vigorously for 1 minute. The suspensions were then transferred to a 2 mL microcentrifuge tube and centrifuged for 15. minutes at 12000 g and at 4° C. in a fixed angle rotor using a Biofuge 17R centrifuge (Baxter, Deerfield, Ill.). The aqueous phase was carefully transferred to a new microcentrifuge tube. An equal volume of isopropanol was added to the aqueous phase, mixed gently, and incubated at 4° C. for 15 minutes. RNA was pelleted by centrifuging the mixture for 15 minutes at 12000 g and at 4° C. as described above. The supernatant was removed and the pellet washed with 75% (v/v) ethanol (Pharmco Products, Brookfield, Conn.), followed by centrifugation at 7500 g for 8 minutes at 4° C. The supernatant was removed, and then the RNA pellet was air-dried briefly and resuspended in RNase-free water (Promega, Madison, Wis.). The samples were then treated with Amplification Grade RNase-free DNase I to remove any residual DNA (Invitrogen, Carlsbad, Calif.). Specifically, twenty micrograms of RNA were treated in a reaction volume of 0.1 mL, containing 1× DNase I reaction buffer and 10 units of DNase I. The reaction continued at room temperature for 15 minutes. […]

endometrium = test: average endometrial thickness in treated monkeys; type: in vivo, cynomolgus monkeys (Macaca fascicularis); conditions: Ovx/E2 + PRM 10 mg/kg daily oral, 19 days
Text: as §1
Animals and treatment were the same as Example 1 with the following exceptions. To study the effect of PRMs on the endometrium and gene expression, groups of three ovariectomized (OVX) monkeys were given an estrogen implant (E2), plus daily oral doses of the following PRMs for 19 days: mifepristone at 10 mg/kg/d; 17N11-DE (17β-N-substituted-11β-dimethylaminophenyl-estra-4,9-dien-3-one) 1.0, 3.0, or 10 mg/kg/d; 17N11-PE (17β-N-substituted-11β-piperidinylphenyl-estra-4,9-dien-3-one) at 1.0, 3.0, or 10 mg/kg/d. A placebo (0.5% methylcellulose) was administered as a control. 17N11-DE and 17N11-PE are two PRMs that have been described in PCT Publication No. WO 99/62928. Tissue samples were taken from endometria and myometria for histological analysis.

DMBT1 [2] = test: quantitative RT-PCR of DMBT1 in uterus of ovariectomized rats; type: in vivo, Wistar rats; conditions: OVX rats, ethinyl estradiol + medroxyprogesterone acetate + 10 mg/kg mifepristone (FIG. 3B)
Experimental: Six weeks old ovariectomized Wistar rats (Charles River, Wilmington, Mass.) were dosed for either one day or six weeks with vehicle or test compounds. All treatments were delivered orally, once daily, in 0.5% methylcellulose or sesame oil. After treatment, the uteri were removed, total RNA was purified from the tissues using TRIzol reagent (Invitrogen, Carlsbad, Calif.) as directed by the manufacturer.
Quantitative reverse transcription-polymerase chain reactions (RT-PCR) of DMBT1 from rat RNA samples were carried out using a One-Step RT-PCR Master Mix Kit (Applied Biosystems, Foster City, Calif.) and an ABI Prism 7000 Sequence Detection System (Applied Biosystems), as described by the manufacturer. Commercially available primers and FAM-labeled MGB probes for human and rat DMBT1 (catalog numbers Hs00244827_ml and Rn00575705_ml, respectively) were obtained from Applied Biosystems (Foster City, Calif.). Messenger RNA levels were normalized against 18S ribosomal RNA levels determined using primers and a VIC- and TAMRA-labeled probe from the same vendor.

uterus = test: uterine weight in 22-day-old female rats; type: in vivo, Sprague Dawley rats; conditions: oral; for uterine weight on co-treatment with estrone: 70 μg/kg/day estrone + 1 mg/kg/day compound, three days (FIG. 1); for uterine weight: compound alone, three days, estrone 70 μg/kg/day, others 1 mg/kg/day, vs control (FIG. 1)
Experimental: (§2) Ten groups of 22-day-old female Sprague Dawley rats (three animals per group) were used to evaluate the effects of estrone, tamoxifen, raloxifene, and ICI 182780 on DMBT1 expression in the uterus. The following groups of rats were treated for three days as follows:
(§3) All treatments were delivered orally in 0.5% Methocel. After treatment the animals were euthanized and the uteri were collected, weighed, frozen in liquid nitrogen, and stored at −20° C. RNA was purified from the frozen uteri using 1.0 mL of TRIzol Reagent (Invitrogen) and a PowerGen 25 tissue homogenizer (Fisher Scientific), according to the manufacturer's instructions.
In rats, uteri increase in size under the proliferative influence of estrogen, and this increase in size can be measured by weighing the tissues.
Administration of the treatments and collection of tissue samples were carried out according to the procedure described in Example 2. RNA was purified, blotted and hybridized to radioactively labeled rat ebnerin cDNA as in described in Example 2.

DMBT1 [3] = test: Northern analysis of DMBT1 expression in rat uterus; type: in vivo, Sprague Dawley rats; conditions: 70 μg/kg/day estrone + 1 mg/kg/day compound, relative to estrone alone (FIG. 3A)
Experimental: as §2, §3
Northern analysis was performed to determine gene expression, including DMBT1 expression, in the uterus of control and treated rats. For gel electrophoresis, samples containing 2 μg of total RNA in a volume of 2 μL of water were added to 6 microliters of formaldehyde loading dye (Ambion) and incubated at 65° C. for 20 minutes. One microliter of a 0.1 mg/ml ethidium bromide solution was then added to each sample. […] The RNA was transferred to a Hybond-N membrane (Amersham) for […] by capillary transfer blotting, using 10×SSC (0.15 M Sodium citrate, pH 7.0, 1.5 M NaCl), after which the membranes were stained with ethidium bromide, destained with water, and photographed for lane loading comparison. The membranes were then air-dried and kept at room temperature until hybridization.
A glycerol stock of a bacterial clone carrying a plasmid (pINCY) containing the rat ebnerin (DMBT1) gene was obtained from Incyte Genomics (ID#: 0000101155000011). […] One colony was selected and used to inoculate 200 mL of Lennox L Broth (Sigma)+50 μg/mL ampicillin (Sigma). The liquid culture was grown overnight at 37° C. and the bacteria were collected by centrifugation. Purification of plasmid DNA was carried out using a QIAfilter plasmid maxi kit (QIAgen) according to the manufacturer's instructions.
Purified pINCY/DMBT1 was treated with the restriction enzymes EcoRI and NotI (Promega) for the preparation and isolation of a 1,174 bp DNA fragment containing the ebnerin probe (DMBT1). The products of the restriction enzyme reaction were separated by electrophoresis on a 1× TAE, 1% SeaKem Gold Agarose Reliant gel, and the band corresponding to the 1.174 kb DNA ebnerin clone was excised. The ebnerin DNA probe was purified from the gel slice using a QIAquick Gel Extraction Kit (QIAgen) according to the manufacturer's instructions. Bound DNA was eluted from the QIAgen column with 50 μL of elution buffer. The ebnerin DNA probe in the eluate was quantified by comparison to a DNA standard by gel electrophoresis. The ebnerin DNA probe was then diluted to a final concentration of 25 ng/μL.
Random-primed probe was made from 25 ng of the purified ebnerin DNA using a DECAprime II kit (Ambion) and Redivue α-^32P dATP (10 mCi/mL) (Amersham) according to the manufacturer's instructions, with the exception that the reaction was incubated for 30 minutes at 37° C. After adding EDTA to stop the reaction, the labeled probe was purified using a QIAquick Nucleotide Removal Kit (QIAgen) according to the manufacturer's instructions, with the final volume of eluted probe being 50 μL. Two microliters were counted in a scintillation counter to ensure optimal radionuclide incorporation (>2×10^6 cpm/μL).
The blot membrane as described in section A was wet in 2×SSC buffer (Sigma) for 15 minutes, then pre-hybridized in 10 mL RapidHyb (Amersham) at 65° C. for 20 minutes. The probe was boiled for 10 minutes, and 25 μL was added to 10 mL of RapidHyb, pre-warmed to 65° C. The blot membrane was added to the diluted probe solution and incubated, with rotation, in a hybridization oven for approximately 10 hours.
The membrane was removed from the probe-containing solution and rinsed twice with 2×SSPE +0.5% SDS+0.5% pyrophosphate at room temperature, and then washed once, with gentle agitation, for 30 minutes at room temperature in the same solution.

DMBT1 [4] = test: immunohistochemical analysis of DMBT1 expression in rat uterus; type: in vivo, Wistar rats; conditions: OVX rats dosed six weeks; compared with estrogen (ethinyl estradiol)
Experimental: Tissues were trimmed and processed for paraffin embedding according to conventional methods. Five-micron sections were cut, mounted onto SuperFrost Plus+(Fisher Scientific, Pittsburgh, Pa.) microscopic slides and dried overnight. […] Briefly, tissue sections on microscopic slides were dewaxed and re-hydrated. Slides were microwaved for 5 min in Target buffer (Dako, Carpenturia, Calif.), cooled, placed in phosphate-buffered saline (PBS, pH 7.4) and treated with 3% (v/v) H2O2 for 10 min at room temperature. All incubations (30 min each) and washes were performed at room temperature. Normal rabbit blocking serum (Vector Labs, Burlingame, Calif.) was placed on all slides for 10 min. After a brief rinse in PBS, sections were treated with goat polyclonal DMBT1 primary antibody (1:25, Hypromatrix, Worcester, Mass.). Slides were then washed in PBS and treated with rabbit anti-goat biotinylated secondary antibodies (Vector Labs). […]
The rabbit polyclonal PCNA (proliferating cell nuclear antigen) antibody (1:4000; Sigma, St. Louis, Mo.) was detected using the HRP:SG detection system as described for routine single IHC, except the use of the SG chromogen (Vector Labs). […] DMBT1 was then detected using the Fast Red chromogen (Sigma, St. Louis, Mo.). […]

luminal epithelium = luminal epithelium thickening in rat uterus sections; type: in vivo, Wistar rats; conditions: OVX rats dosed six weeks, compared to sham and ovariectomized control; estrogen = ethinyl estradiol
Experimental: Mature, six week-old ovariectomized or sham-operated Wistar rats (Charles River) were dosed with ethinyl estradiol, tamoxifen or raloxifene for six weeks. Uteri were removed, sectioned for immunohistochemical analysis for DMBT1 expression using a polyclonal goat antibody against the human protein.
Tissues were trimmed and processed for paraffin embedding according to conventional methods. Five-micron sections were cut, mounted onto SuperFrost Plus+(Fisher Scientific, Pittsburgh, Pa.) microscopic slides and dried overnight. The protocols for routine single immunohistochemistry (IHC) have been described previously (D'Andrea et al., 2001, Biotechnic Histochem. 76:97-106). Briefly, tissue sections on microscopic slides were dewaxed and re-hydrated. Slides were microwaved for 5 min in Target buffer (Dako, Carpenturia, Calif.), cooled, placed in phosphate-buffered saline (PBS, pH 7.4) and treated with 3% (v/v) H2O2 for 10 min at room temperature. All incubations (30 min each) and washes were performed at room temperature. Normal rabbit blocking serum (Vector Labs, Burlingame, Calif.) was placed on all slides for 10 min. After a brief rinse in PBS, sections were treated with goat polyclonal DMBT1 primary antibody (1:25, Hypromatrix, Worcester, Mass.). Slides were then washed in PBS and treated with rabbit anti-goat biotinylated secondary antibodies (Vector Labs). After washing in PBS, the avidin-biotin-horseradish peroxidase complex reagent (HRP, Vector Labs) was added. All slides were washed and treated with 3,3′-diaminobenzidine (DAB, Biomeda, Foster City, Calif.) two times for 5 min each, rinsed in distilled water, and counterstained with hematoxylin.

Compound | effect on estrogen-induced increase in DMBT1 mRNA levels (DMBT1 [1]) | effect on estrogen-induced increase in DMBT1 mRNA levels (DMBT1 [1]; listed as Mifepristone) | repression of estrogen-induced DMBT1 mRNA levels (DMBT1 [1]; Ovx/E2 + 10 mg/kg, microarray (FIG. 7)) | Endometrial Thickness (mm) (endometrium) | Endometrial Thickness (mm) (endometrium; listed as Mif) | effect on progestin blockade of DMBT1 mRNA increase (DMBT1 [2]) | uterine weight on co-treatment with estrone (uterus) | uterine weight (uterus) | DMBT1 expression on coadministration with estrone (DMBT1 [3]) | cell levels of DMBT1 (immunostaining) in luminal epithelium (DMBT1 [4]) | thickening of the luminal epithelium (luminal epithelium)
CC#C[C@]1(O)CC[C@H]2[C@@H]3CCC4=CC(=O)CCC4=C3[C@@H](c3ccc(N(C)C)cc3)C[C@@]21C [mifepristone] | inhibited | prevented the increase in DMBT1 mRNA levels | about 20 fold | shrinks to about the thickness of that seen with leuprolide-treated tissue | 1.17 mm | blocked in turn |  |  |  |  | 
O=C(c1ccc(OCCN2CCCCC2)cc1)c1c(-c2ccc(O)cc2)sc2cc(O)ccc12 [raloxifene] |  |  |  |  |  |  | lower uterine weights, as compared to estrone | did not significantly affect uterine weight | additive increase | higher cell levels of DMBT1 than estrogen | not with raloxifene treatment
CC/C(=C(\c1ccccc1)c1ccc(OCCN(C)C)cc1)c1ccccc1 [tamoxifen] |  |  |  |  |  |  | lower uterine weights, as compared to estrone | increases uterine weight only moderately | increased slightly | higher cell levels of DMBT1 than estrogen | even more pronounced
